From PubChem BioAssay (NCI)
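In this assay, cells in 96-well plates receive the compound at five concentrations for 48 hours. Endpoints are linearly interpolated between the surrounding concentrations. GI50: concentration for 50% inhibition of growth. TGI: total growth inhibition.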

Experiments:
Assay in all cases: inhibition of tumour cell growth, NCI panel, 48 h
CCRF-CEM leukemia = tested on: CCRF-CEM leukemia
HL-60(TB) leukemia = tested on: HL-60(TB) leukemia
SNB-75 CNS = tested on: SNB-75 CNS
DLD-1 colon = tested on: DLD-1 colon
DMS 114 small cell lung = tested on: DMS 114 small cell lung
DMS 273 small cell lung = tested on: DMS 273 small cell lung
KM20L2 colon = tested on: KM20L2 colon
LXFL 529 NSCLC = tested on: LXFL 529 NSCLC
M19-MEL melanoma = tested on: M19-MEL melanoma
SNB-78 CNS = tested on: SNB-78 CNS
XF 498 CNS = tested on: XF 498 CNS
HOP-18 NSCLC = tested on: HOP-18 NSCLC

[O-][n+]1onc(-c2ccccc2)c1CN1CCOCC1
TGI (CCRF-CEM leukemia): > 100 µM | TGI (HL-60(TB) leukemia): > 100 µM | TGI (SNB-75 CNS): > 100 µM

Nc1cn(Cc2ccccc2)c2nc(/C=C3/C=CC=CC3=O)c(O)n12
TGI (CCRF-CEM leukemia): > 100 µM | TGI (HL-60(TB) leukemia): > 100 µM | TGI (SNB-75 CNS): > 100 µM

Cc1cc(NCCCCCCCCCC[n+]2c(C)cc(N)c3ccccc32)c2ccccc2n1
TGI (CCRF-CEM leukemia): 7.43 µM | TGI (SNB-75 CNS): 7.71 µM

O=c1oc2ccccc2c(O)c1C(c1ccc(/C=C/c2ccccc2)cc1)c1c(O)c2ccccc2oc1=O
TGI (CCRF-CEM leukemia): > 100 µM | TGI (HL-60(TB) leukemia): > 100 µM | TGI (SNB-75 CNS): 66.5 µM

CSC1=N/C(=C\c2ccco2)C(=O)N1CN1CCCCC1
TGI (SNB-75 CNS): > 100 µM

O=C(CCc1ccc(O)cc1)NCCc1cccc(OCc2ccccc2)c1
TGI (CCRF-CEM leukemia): 20.7 µM | TGI (HL-60(TB) leukemia): 50 µM

c1ccc(Nc2nnc(Cn3ccc4ccccc43)s2)cc1
TGI (CCRF-CEM leukemia): > 100 µM | TGI (SNB-75 CNS): 82.8 µM

COc1ccc2c(c1)N=C1CSC(c3cccc(Br)c3)N1C2 (centres undefined)
TGI (HL-60(TB) leukemia): 29.6 µM | TGI (SNB-75 CNS): 38.5 µM

CCCCC(=O)NC1(c2cc3ccccc3s2)CCCCC1
TGI (CCRF-CEM leukemia): > 100 µM | TGI (HL-60(TB) leukemia): 76.5 µM | TGI (SNB-75 CNS): > 100 µM

CC1=CC(=O)C(=O)C2=C1OC1(C2)C(C)CCC2C3(C)CCC(O)C(C)(C)C3CCC21C (centres undefined)
TGI (CCRF-CEM leukemia): 65.2 µM | TGI (DLD-1 colon): 41.8 µM | TGI (DMS 114 small cell lung): 33.6 µM | TGI (DMS 273 small cell lung): 60.9 µM | TGI (HL-60(TB) leukemia): 5.51 µM | TGI (KM20L2 colon): 37.4 µM | TGI (LXFL 529 NSCLC): 33.6 µM | TGI (M19-MEL melanoma): 34.4 µM | TGI (SNB-75 CNS): > 100 µM | TGI (SNB-78 CNS): 64.6 µM | TGI (XF 498 CNS): 34 µM

NC(=O)C(c1ccccc1)N1OC2C(=O)N(c3cccc4ccccc34)C(=O)C2C1c1c2ccccc2c(Cl)c2ccccc12 (centres undefined)
TGI (HL-60(TB) leukemia): 11.2 µM | TGI (SNB-75 CNS): 20.4 µM

COc1cccc2c(Nc3ccc(S(=O)(=O)NC(C)=O)cc3)c3ccc([N+](=O)[O-])cc3nc12
TGI (CCRF-CEM leukemia): > 100 µM | TGI (HL-60(TB) leukemia): > 100 µM | TGI (SNB-75 CNS): > 100 µM

O=C1c2ccccc2-c2ccc(N=Nc3c(O)ccc4ccccc34)cc21
TGI (CCRF-CEM leukemia): 35 µM | TGI (SNB-75 CNS): > 100 µM

CCOP(=O)(OCC)c1ccc(=O)[nH]c1-c1cccs1
TGI (SNB-75 CNS): > 100 µM

CCSC1=N/C(=C\c2ccco2)C(Cl)=N1
TGI (CCRF-CEM leukemia): > 100 µM | TGI (HL-60(TB) leukemia): > 100 µM | TGI (SNB-75 CNS): > 100 µM

CCOC(=O)NC(=O)c1cn(CCCOC(=O)CCCCCCCCCCC(=O)OCCCn2cc(C(=O)NC(=O)OCC)c(=O)n(C)c2=O)c(=O)n(C)c1=O
TGI (CCRF-CEM leukemia): > 100 µM | TGI (DLD-1 colon): > 100 µM | TGI (DMS 114 small cell lung): > 100 µM | TGI (DMS 273 small cell lung): > 100 µM | TGI (HL-60(TB) leukemia): > 100 µM | TGI (HOP-18 NSCLC): > 100 µM | TGI (LXFL 529 NSCLC): > 100 µM | TGI (M19-MEL melanoma): > 100 µM | TGI (SNB-75 CNS): > 100 µM | TGI (SNB-78 CNS): > 100 µM | TGI (XF 498 CNS): > 100 µM

CCOC(=O)C(NC(=O)CC(C)C)(Nc1ccc(S(=O)(=O)Nc2nc(C)cc(C)n2)cc1)C(F)(F)F (centres undefined)
TGI (CCRF-CEM leukemia): > 100 µM | TGI (HL-60(TB) leukemia): > 100 µM | TGI (SNB-75 CNS): > 100 µM

C=C1CC(C)(COc2ccc3ccc(=O)oc3c2)OC1=O (centres undefined)
TGI (CCRF-CEM leukemia): 5.11 µM | TGI (HL-60(TB) leukemia): 2.57 µM | TGI (SNB-75 CNS): 22.6 µM

Cc1ccc(S(=O)(=O)NC2C(=O)c3ccccc3C(=O)C2n2cnc3ccccc32)cc1 (centres undefined)
TGI (CCRF-CEM leukemia): > 100 µM | TGI (HL-60(TB) leukemia): 40.8 µM | TGI (SNB-75 CNS): > 100 µM

O=C(C1C(c2ccccc2)N1C(c1ccccc1)c1ccccc1)C1C(c2ccccc2)N1C(c1ccccc1)c1ccccc1 (centres undefined)
TGI (CCRF-CEM leukemia): 22.9 µM | TGI (HL-60(TB) leukemia): 12 µM | TGI (SNB-75 CNS): > 100 µM

COC(=O)C1[C@@H](C(=O)OC)C12C=Cc1ccccc1C=C2 (some centres undefined)
TGI (CCRF-CEM leukemia): > 100 µM | TGI (DLD-1 colon): > 100 µM | TGI (DMS 114 small cell lung): > 100 µM | TGI (DMS 273 small cell lung): > 100 µM | TGI (HL-60(TB) leukemia): > 100 µM | TGI (KM20L2 colon): > 100 µM | TGI (LXFL 529 NSCLC): > 100 µM | TGI (M19-MEL melanoma): > 100 µM | TGI (SNB-78 CNS): > 100 µM | TGI (XF 498 CNS): > 100 µM

COc1ccc2c(c1)CCc1[nH]c3ccccc3c1CCCC2
TGI (CCRF-CEM leukemia): > 10 µM | TGI (HL-60(TB) leukemia): > 10 µM | TGI (SNB-75 CNS): > 10 µM

Cc1ccc(Nc2nc(N)nc3c2ncn3C2OC(CO)C(O)C2O)cc1 (centres undefined)
TGI (CCRF-CEM leukemia): > 100 µM | TGI (HL-60(TB) leukemia): > 100 µM | TGI (SNB-75 CNS): > 100 µM

CC1(C)CCCCCCC2OC2CCCCCC(C)(C)C1=O (centres undefined)
TGI (CCRF-CEM leukemia): > 69.4 µM | TGI (HL-60(TB) leukemia): 57 µM | TGI (SNB-75 CNS): > 100 µM

CCCCCCCCCCCCC(O)C1CCC(C(O)CCCCCCC(O)CCCCCCCC2=CC(C)OC2=O)O1 (centres undefined)
GI50 (CCRF-CEM leukemia): 15.4 µM | TGI (CCRF-CEM leukemia): 79.9 µM | GI50 (HL-60(TB) leukemia): 0.852 µM | TGI (HL-60(TB) leukemia): 62.8 µM | GI50 (SNB-75 CNS): 74.5 µM | TGI (SNB-75 CNS): > 100 µM

COC1=C(N2CC2)C(=O)c2nc3n(c2C1=O)CCC3
TGI (CCRF-CEM leukemia): 1.33 µM | TGI (HL-60(TB) leukemia): 0.595 µM | TGI (SNB-75 CNS): 3.57 µM

CNn1c(C)n[nH]c1=O
TGI (CCRF-CEM leukemia): > 100 µM | TGI (HL-60(TB) leukemia): > 100 µM | TGI (SNB-75 CNS): 85.1 µM

C[C@H]1C[C@H](C)c2ccccc2N(C)C1=Nc1ccccc1
TGI (HL-60(TB) leukemia): 48.3 µM | TGI (SNB-75 CNS): > 100 µM

Cn1c(NS(=O)(=O)c2ccccc2)nc2ccccc21
TGI (CCRF-CEM leukemia): > 100 µM | TGI (HL-60(TB) leukemia): > 100 µM | TGI (SNB-75 CNS): > 100 µM

O=C(c1ccco1)N(C(=S)N1CCN(c2ccccn2)CC1)C1CCCCC1
TGI (CCRF-CEM leukemia): > 100 µM | TGI (DLD-1 colon): > 100 µM | TGI (DMS 114 small cell lung): > 100 µM | TGI (DMS 273 small cell lung): > 100 µM | TGI (HL-60(TB) leukemia): > 100 µM | TGI (HOP-18 NSCLC): > 100 µM | TGI (KM20L2 colon): > 100 µM | TGI (LXFL 529 NSCLC): > 100 µM | TGI (M19-MEL melanoma): > 100 µM | TGI (SNB-75 CNS): > 100 µM | TGI (SNB-78 CNS): > 100 µM

COc1ccc(-c2c(CN3CCOCC3)sc3nc4ccccc4n23)cc1
TGI (CCRF-CEM leukemia): 56.2 µM | TGI (HL-60(TB) leukemia): > 73.2 µM | TGI (SNB-75 CNS): > 100 µM

O=C(O)c1ccc(Nc2nc3ccccc3nc2-c2cccs2)cc1
TGI (CCRF-CEM leukemia): > 100 µM | TGI (HL-60(TB) leukemia): > 100 µM | TGI (SNB-75 CNS): > 100 µM

COc1ccc(C(c2c[nH]c3ccc(Br)cc23)c2c[nH]c3ccc(Br)cc23)cc1
TGI (CCRF-CEM leukemia): 0.436 µM | TGI (HL-60(TB) leukemia): 0.346 µM | TGI (SNB-75 CNS): 1.54 µM

CCCN1CN(C(C(=O)N[C@@H]2C(=O)N3C(C(=O)O)=C(C)CSC23)c2ccc(O)cc2)CSC1=S (some centres undefined)
TGI (CCRF-CEM leukemia): > 100 µM | TGI (DLD-1 colon): > 100 µM | TGI (DMS 114 small cell lung): > 100 µM | TGI (DMS 273 small cell lung): > 100 µM | TGI (HL-60(TB) leukemia): > 100 µM | TGI (HOP-18 NSCLC): > 100 µM | TGI (KM20L2 colon): > 100 µM | TGI (LXFL 529 NSCLC): > 100 µM | TGI (M19-MEL melanoma): > 100 µM | TGI (SNB-75 CNS): > 100 µM | TGI (SNB-78 CNS): > 100 µM | TGI (XF 498 CNS): > 100 µM
